Measurements as given in US7368453B2, “Quinazolinone compounds with reduced bioaccumulation” (Chiron Corporation, priority 2003, dated 2008).
Like-named read-outs stand apart in the source and are kept apart here.

Assay: Tissue half-life (t1/2) and Cmax in plasma, brain, kidney and liver after oral administration to CD-1 mice
Format: in vivo, mouse
Conditions: male, mouse
Description: In vivo studies were conducted to observe the effect of the compounds of the invention in the subject animal. Male CD-1 mice, body weight of 20 grams at arrival, were used in these studies. Mice were given 30 mg/kg of compound in HPMC/Tween solution or suspension via oral gavage. Plasma, brain, and liver samples were collected at time periods of 1, 2, 4, 8, and 24 hours post dosing. One mouse was used per time point. Thus, a total of 5 mice were used for each compound tested. For sample collection, mice were euthanized with CO2. Blood samples were taken by cardiac puncture and kept on ice. Brain and liver samples were collected immediately after bleeding and the samples were kept on dry ice. For calculation of tissue half-lives (t1/2s), the terminal rate constant k was estimated by the absolute value of the slope of a log-linear regression of the terminal phase of the tissue concentration-time profile. The tissue half-life t1/2 is ln(2)/k.
The following table includes t1/2 data for plasma, brain, kidney, and liver obtained after oral administration.
Tissue Half-Life Data for Various Quinazolinone Compounds (PO)

[1] = kidney t1/2, 30 mg/kg oral gavage (PO), read-out: Half-Lives (h) Kidney (converted)
[2] = liver t1/2, 30 mg/kg oral gavage (PO), read-out: Half-Lives (h) Liver (converted)
[3] = plasma t1/2, 30 mg/kg oral gavage (PO), read-out: Half-Lives (h) Plasma (converted)
[4] = brain t1/2, 30 mg/kg oral gavage (PO), read-out: Half-Lives (h) Brain (converted)

SMILES	half-life [1]	half-life [2]	half-life [3]	half-life [4]
COc1ccc(CCn2c(-c3ccncc3)nc3cc(NC(=N[C@H]4C[C@H]5C[C@@H]([C@@H]4C)C5(C)C)N4CCN[C@@H](CF)C4)ccc3c2=O)c(F)c1 [Example 250]	5.7 h	8.8 h	26 h	3 h
C[C@@H]1[C@@H](N=C(Nc2ccc3c(=O)n(CCc4ccc(Cl)cc4Cl)c(-c4cnccn4)nc3c2)N2CCN[C@@H](C(F)F)C2)C[C@H]2C[C@@H]1C2(C)C [Example 228, (3R)-N-{3-[2-(2,4-dichlorophenyl)ethyl]-4-oxo-2-pyrazin-2-yl-3,4-dihydroquinazolin-7-yl}-3-(difluoromethyl)-N′-[(1S,2S,3S,5R)-2,6,6-trimethylbicyclo[3.1.1]hept-3-yl]piperazine-1-carboximidamide]	–	9.1 h	–	–
COc1ccc(CCn2c(-c3cccnc3)nc3cc(NC(=N[C@H]4C[C@H]5C[C@@H]([C@@H]4C)C5(C)C)N4CCN[C@@H](C(F)F)C4)ccc3c2=O)c(F)c1 [Example 220, (3R)-3-(difluoromethyl)-N-{3-[2-(2-fluoro-4-methoxyphenyl)ethyl]-4-oxo-2-pyridin-3-yl-3,4-dihydroquinazolin-7-yl}-N′-[(1S,2S,3S,5R)-2,6,6-trimethylbicyclo[3.1.1]hept-3-yl]piperazine-1-carboximidamide]	–	2.5 h	2.1 h	3.1 h
COc1ccc(CCn2c(-c3cnccn3)nc3cc(NC(=N[C@H]4C[C@H]5C[C@@H]([C@@H]4C)C5(C)C)N4CCN[C@@H](C(F)F)C4)ccc3c2=O)c(F)c1 [Example 234, (3R)-3-(difluoromethyl)-N-{3-[2-(2-fluoro-4-methoxyphenyl)ethyl]-4-oxo-2-pyrazin-2-yl-3,4-dihydroquinazolin-7-yl}-N′-[(1S,2S,3S,5R)-2,6,6-trimethylbicyclo[3.1.1]hept-3-yl]piperazine-1-carboximidamide]	–	4.9 h	3.5 h	2.6 h
COc1ccc(CCn2c(-c3cccnc3)nc3cc(NC(=N[C@H]4C[C@H]5C[C@@H]([C@@H]4C)C5(C)C)N4CCN(O)[C@@H](C)C4)ccc3c2=O)c(F)c1 [Example 245, (3S)-N-{3[2(2-fluoro-4-methoxyphenyl)ethyl]-4-oxo-2-pyridin-3-yl-3,4-dihydroquinazolin-7-yl}-4-hydroxy-3-methyl-N′-[(1S,2S,3S,5R)-2,6,6-trimethylbicyclo[3.1.1]hept-3-yl]piperazine-1-carboximidamide]	1.7 h	5.2 h	2.2 h	3.1 h
COc1ccc(CCn2c(-c3cccnc3)nc3cc(NC(=N[C@H]4C[C@H]5C[C@@H]([C@@H]4C)C5(C)C)N4CCN[C@@H](CF)C4)ccc3c2=O)c(F)c1 [Example 248, (3R)-N-{3-[2-(2-fluoro-4-methoxyphenyl)ethyl]-4-oxo-2-pyridin-3-yl-3,4-dihydroquinazolin-7-yl}-3-(fluoromethyl)-N′-[(1S,2S,3S,5R)-2,6,6-trimethylbicyclo[3.1.1]hept-3-yl]piperazine-1-carboximidamide]	11 h	6.2 h	5.3 h	14 h
COc1ccc(CCn2c(-c3nnc[nH]3)nc3cc(NC(=N[C@H]4C[C@H]5C[C@@H]([C@@H]4C)C5(C)C)N4CCN[C@@H](CF)C4)ccc3c2=O)c(F)c1 [Example 252, (3R)-N-[3-[2-(2-fluoro-4-methoxyphenyl)ethyl]-4-oxo-2-(4H-1,2,4-triazol-3-yl)-3,4-dihydroquinazolin-7-yl]-3-(fluoromethyl)-N′-[(1S,2S,3S,5R)-2,6,6-trimethylbicyclo[3.1.1]hept-3-yl]piperazine-1-carboximidamide]	8.4 h	16 h	–	–
C[C@@H]1[C@@H](N=C(Nc2ccc3c(=O)n(CCc4ccc(Cl)cc4)c(-c4cnccn4)nc3c2)N2CCN[C@@H](C(F)F)C2)C[C@H]2C[C@@H]1C2(C)C [Example 235, (3R)-N-{3-[2-(4-chlorophenyl)ethyl]-4-oxo-2-pyrazin-2-yl-3,4-dihydroquinazolin-7-yl}-3-(difluoromethyl)-N′-[(1 S,2S,3S,5R)-2,6,6-trimethylbicyclo[3.1.1]hept-3-yl]piperazine-1-carboximidamide]	–	5.6 h	4.7 h	6.1 h
C[C@@H]1[C@@H](N=C(Nc2ccc3c(=O)n(CCc4ccc(Cl)cc4)c(-c4c[nH]c5ccccc45)nc3c2)N2CC(=O)N[C@@H](C)C2)C[C@H]2C[C@@H]1C2(C)C [Example 236, (3S)-N-[3-[2-(4-chlorophenyl)ethyl]-2-(1H-indol-3-yl)-4-oxo-3,4-dihydroquinazolin-7-yl]-3-methyl-5-oxo-N′-[(1S,2S,3S,5R)-2,6,6-trimethylbicyclo[3.1.1]hept-3-yl]piperazine-1-carboximidamide]	–	4.2 h	7.7 h	–

Other lines, results leading:

half-life [1]	half-life [2]	half-life [3]	half-life [4]	SMILES
9.4 h	3.6 h	2.5 h	–	COc1ccc(CCn2cnc3cc(N/C(=N/[C@H]4C[C@@H]5C[C@H]([C@@H]4C)C5(C)C)N4C[C@@H](C)N(C#N)[C@@H](C)C4)ccc3c2=O)c(F)c1 [Example 301, (3R,5S)-4-cyano-N-(3-{-[2-fluoro-4-(methyloxy)phenyl]ethyl}-4-oxo-3,4-dihydro-7-quinazolinyl]-3,5-dimethyl-N′-[(1R,2S,3S,5S)-2,6,6-trimethylbicyclo[3.1.1]hept-3-yl]-1-piperazinecarboximidamide]
–	2.9 h	5.3 h	–	COc1ccc(CCn2c(NC3CC3)nc3cc(NC(=N[C@H]4C[C@H]5C[C@@H]([C@@H]4C)C5(C)C)N4CCN[C@@H](CF)C4)ccc3c2=O)c(F)c1 [Example 258, (3R)-N-{2-(cyclopropylamino)-3-(2-(2-fluoro-4-methoxyphenyl)ethyl]-4-oxo-3,4-dihydroquinazolin-7-yl}-3-(fluoromethyl)-N′-[(1S,2S,3S,5R)-2,6,6-trimethylbicyclo[3.1.1]hept-3-yl]piperazine-1-carboximidamide]
–	7.3 h	5.6 h	25 h	COc1ccc(CCn2c(-c3ncc[nH]3)nc3cc(NC(=N[C@H]4C[C@H]5C[C@@H]([C@@H]4C)C5(C)C)N4CCN[C@@H](CF)C4)ccc3c2=O)c(F)c1 [Example 255, (3R)-N-[3-[2-(2-fluoro-4-methoxyphenyl)ethyl]-2-(1H-imidazoi-2-yl)-4-oxo-3,4-dihydroquinazolin-7-yl]-3-(fluoromethyl)-N′-[(1S,2S,3S,5R)-2,6,6-trimethylbicyclo[3.1.1]hept-3-yl]piperazine-1-carboximidamide]
3.3 h	3.2 h	4.9 h	–	COc1ccc(CCn2c(-c3cccnc3)nc3cc(N/C(=N/[C@H]4C[C@@H]5C[C@H]([C@@H]4C)C5(C)C)N4C[C@@H](C)N(O)[C@@H](C)C4)ccc3c2=O)c(F)c1 [Example 296, (3R,5S)-N-[3-{2-[2-fluoro-4-(methyloxy)phenyl]ethyl}-4-oxo-2-(3-pyridinyl)-3,4-dihydro-7-quinazolinyl]-4-hydroxy-3,5-dimethyl-N′-[(1R,2S,3S,5S)-2,6,6-trimethylbicyclo[3.1.1]hept-3-yl]-1-piperazinecarboximidamide]
9.6 h	20 h	15 h	11 h	COc1ccc(CCn2c(-c3nccs3)nc3cc(NC(=N[C@H]4C[C@H]5C[C@@H]([C@@H]4C)C5(C)C)N4CCN[C@@H](CF)C4)ccc3c2=O)c(F)c1 [Example 254, (3R)-N-[3-[2-(2-fluoro-4-methoxyphenyl)ethyl]-4-oxo-2-(1,3-thiazol-2-yl)-3,4-dihydroquinazolin-7-yl]-3-(fluoromethyl)-N′-[(1 S,2S,3S,5R)-2,6,6-trimethylbicyclo[3.1.1]hept-3-yl]piperazine-1-carboximidamide]
–	1.2 h	1.1 h	–	COc1ccc(CCn2cnc3cc(N/C(=N/[C@H]4C[C@@H]5C[C@H]([C@@H]4C)C5(C)C)N(C)CCO)ccc3c2=O)c(F)c1 [Example 288]
14 h	6.9 h	7.3 h	27 h	COc1ccc(CCn2c(N3CCOCC3)nc3cc(NC(=N[C@H]4C[C@H]5C[C@@H]([C@@H]4C)C5(C)C)N4CCN[C@@H](CF)C4)ccc3c2=O)c(F)c1 [Example 253]
6.5 h	–	5.3 h	–	COc1ccc(CCn2cnc3cc(N/C(=N/[C@H]4C[C@@H]5C[C@H]([C@@H]4C)C5(C)C)N4CCC[C@H]4CO)ccc3c2=O)c(F)c1 [Example 281, (2S)-N-(3-{2-[2-fluoro-(methyloxy)phenyl]ethyl]-4-oxo-3,4-dihydro-7-quinazolinyl)-2-(hydroxymethyl)-N′-[(1R,2S,3S,5S)-2,6,6-trimethylbicyclo[3.1.1]hept-3-yl]-1-pyrrolidinecarboximidamide]
2.7 h	2.3 h	2.1 h	–	COc1ccc(CCn2cnc3cc(N/C(=N/C4C[C@@H]5C[C@H]([C@@H]4C)C5(C)C)N4CC(C)CC(C)C4)ccc3c2=O)c(F)c1 (stereo partly drawn) [Example 274, N-(3-{2-[2-fluoro-4-(methyloxy)phenyl]ethyl}-4-oxo-3,4-dihydro-7-quinazolinyl)-3,5-dimethyl-N-[(1R,2S,5S)-2,6,6-trimethylbicyclo[3.1.1]hept-3-yl]-1-piperidinecarboximidamide]
